Reference: US7507725B2, “Compounds with sulphonamide group and pharmaceutical compositions containing these compounds” (Schering AG, priority 2000, dated 2009)

Columns and labels:
erythrocytes [1] = experiment: Distribution of total radioactivity (3H/14C) on erythrocytes and plasma after one-time oral administration (FIG. 1); format: in vivo; details: 3H-labeled steroid skeleton
Excerpt: There are indications that in oral administration, both radicals R^1 and R^2, if they are different from a hydrogen atom, are cleaved off and are replaced by a hydrogen atom, so that in this case, not the group —SO2NR^1R^2, but rather the group —SO2NH2 is provided for the uptake into erythrocytes or binding to erythrocytes. […] The data also confirm that substances according to the invention are enriched in the erythrocyte compartment relative to the plasma.

erythrocytes [2] = experiment: Stability of the prodrug and release of the active ingredient in erythrocytes, plasma and tissues; format: in vitro ADME
Excerpt: If the compounds act as a prodrug, the therapeutically desirable action is obtained by release, especially hydrolytic cleavage, of the active ingredient that is contained in the product and/or its metabolites.

[3] = Hepatic estrogenicity after oral administration; format: in vivo
Excerpt: After oral administration, estradiol sulfamate is resorbed by the gastrointestinal tract and is taken up into erythrocytes or bonded to erythrocytes. […] The estradiol sulfamate is enriched in the erythrocytes by a multiple (factor: 98:2) of the plasma concentration, whereby a depot of the estradiol sulfamate is produced that makes possible the slow release of the estradiol sulfamate into peripheral tissues and target tissues (see FIG. 2). This makes possible an extension of the dwell time of the estradiol sulfamate in the organism, and the occurrence of very high levels in the plasma is avoided.

[4] = target: T1, carboanhydrase II (hCA II) (Homo sapiens, UniProt P00918); experiment: Affinity chromatography of erythrocyte lysate proteins on immobilized estradiol sulfamate derivative, eluate analysed by Western blot; format: binding; details: ligand J1242 immobilized on E-AH-sepharose
T1 construct: proteins of erythrocyte-lysates were separated on the column; from tissue; host or cells: erythrocytes (lysate)
Excerpt: In FIG. 3, the chemical synthesis of a linkable estradiol sulfamate (J1242) is shown, which is described in S. Schwarz et al., Steroids 64 (1999) 460–471.
After the estradiol sulfamate derivative is immobilized in the column material (E-AH-sepharose), proteins of erythrocyte-lysates were separated on the column. The protein that is responsible for the binding of estradiol sulfamate in erythrocytes was adsorbed on the surface of the affinity chromatography column. After the protein remaining on the column was washed and eluted with an acetate buffer, the eluate was analyzed with use of the “Western Plot Technique” (see FIGS. 4 and 5).

Compound | presence of the 14C-labeled acyl substituent of the sulfamate radical in the blood (erythrocytes [1]) | site of release of the active ingredient from the prodrug (erythrocytes [2]) | stability of the compound in erythrocytes (erythrocytes [2]; erythrocytes) | hepatic estrogenicity [3] | binding to carrier protein in erythrocytes [4]
17β-hydroxy-estra-1,3,5(10)-trien-3-yl-(N-acetyl)sulfamate [J1045] | no longer present in the-blood | – | – | – | –
C[C@]12CC[C@@H]3c4ccc(OS(N)(=O)=O)cc4CC[C@H]3[C@@H]1CC[C@@H]2O [J995, estradiol sulfamate] | – | only in the plasma or in tissues | stable in the erythrocytes | reduced hepatic estrogenicity | binds to the carboanhydrase II (hCA II)
